Experimental findings from ChEMBL document CHEMBL1201861, “Genomics of Drug Sensitity in Cancer screening data, Wellcome Trust Sanger Institute” are described below.

The subject of test [1] is DK-MG. Nature of the test: cells. Conditions: Homo sapiens, DK-MG. The test is classed as functional, cell-based, Homo sapiens.
Description: SANGER: Inhibition of human DK-MG cell growth in a cell viability assay.
Test [2] relates to Detroit 562. The test is described as follows: cells. The class given is functional, cell-based, Homo sapiens. Conditions: Homo sapiens, Detroit 562.
Description: SANGER: Inhibition of human Detroit562 cell growth in a cell viability assay.
For test [3], the system named is DoTc2-4510. Nature of the test: cells. The test is classed as functional, cell-based, Homo sapiens. Conditions: Homo sapiens, DoTc2-4510.
Test [4] relates to EFO-21. The test is described as follows: cells. The test is classed as functional, cell-based, Homo sapiens. Conditions: Homo sapiens, EFO-21.
Description: SANGER: Inhibition of human EFO-21 cell growth in a cell viability assay.
For test [5], the system named is EPLC-272H. The test is described as follows: cells. The class given is functional, cell-based, Homo sapiens. Conditions: Homo sapiens, EPLC-272H.
Description: SANGER: Inhibition of human EPLC-272H cell growth in a cell viability assay.
The subject of test [6] is H9. Nature of the test: cells. The test is classed as functional, cell-based, Homo sapiens. Conditions: Homo sapiens, H9.
Description: SANGER: Inhibition of human H9 cell growth in a cell viability assay.
Test [7] deals with HEC-1. The test is described as follows: cells. The class given is functional, cell-based, Homo sapiens. Conditions: Homo sapiens, HEC-1.
Description: SANGER: Inhibition of human HEC-1 cell growth in a cell viability assay.
For test [8], the system named is HGC-27. The test is described as follows: cells. The class given is functional, cell-based, Homo sapiens. Conditions: Homo sapiens, HGC-27.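 Also: growth inhibition of human HGC-27 cells, read out in a cell viability assay.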
Description: SANGER: Inhibition of human HGC-27 cell growth in a cell viability assay.
Test [9] concerns HSC-3. Nature of the test: cells. The test is classed as functional, cell-based, Homo sapiens. Conditions: Homo sapiens, HSC-3.
Description: SANGER: Inhibition of human HSC-3 cell growth in a cell viability assay.
Test [10] relates to J82. The test is described as follows: cells. The class given is functional, cell-based, Homo sapiens. Conditions: Homo sapiens, J82.
Description: SANGER: Inhibition of human J82 cell growth in a cell viability assay.
In test [11] the test system is KYSE-140. The test is described as follows: cells. The class given is functional, cell-based, Homo sapiens. Conditions: Homo sapiens, KYSE-140.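 Also: cell viability assay measuring growth inhibition in human KYSE-140 cells.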
Description: SANGER: Inhibition of human KYSE-140 cell growth in a cell viability assay.
The subject of test [12] is MIA PaCa-2. The test is described as follows: cells. The test is classed as functional, cell-based, Homo sapiens. Conditions: Homo sapiens, MIA PaCa-2.
Description: SANGER: Inhibition of human MIA-PaCa-2 cell growth in a cell viability assay.
The test system of test [13] is MeWo. The test is described as follows: cells. The class given is functional, cell-based, Homo sapiens. Conditions: Homo sapiens, MeWo.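 Also: growth inhibition of MeWo cells, determined by a cell viability readout.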
Description: SANGER: Inhibition of human Mewo cell growth in a cell viability assay.
The test system of test [14] is NB7. Nature of the test: cells. Conditions: Homo sapiens, NB7. The test is classed as functional, cell-based, Homo sapiens.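 Also: growth inhibition of NB7 cells, read out with a cell viability assay.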
Description: SANGER: Inhibition of human NB7 cell growth in a cell viability assay.
Test [15] has as its system NCI-H1693. The test is described as follows: cells. Conditions: Homo sapiens, NCI-H1693. The test is classed as functional, cell-based, Homo sapiens.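 Also: growth inhibition of the human cell line, read out with a cell viability assay.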
Description: SANGER: Inhibition of human NCI-H1693 cell growth in a cell viability assay.
Test [16] concerns NCI-H1792. Nature of the test: cells. The test is classed as functional, cell-based, Homo sapiens. Conditions: Homo sapiens, NCI-H1792.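 Also: growth inhibition of human NCI-H1792 cells, read out as cell viability.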
Description: SANGER: Inhibition of human NCI-H1792 cell growth in a cell viability assay.
Test [17] has as its system NCI-H1975. Nature of the test: cells. The test is classed as functional, cell-based, Homo sapiens. Conditions: Homo sapiens, NCI-H1975.
Description: SANGER: Inhibition of human NCI-H1975 cell growth in a cell viability assay.
For test [18], the system named is NCI-H1993. Nature of the test: cells. The test is classed as functional, cell-based, Homo sapiens. Conditions: Homo sapiens, NCI-H1993.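 Also: growth inhibition of the cancer cell line, assessed with a cell viability assay.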
Description: SANGER: Inhibition of human NCI-H1993 cell growth in a cell viability assay.
Test [19] concerns NCI-H2009. The test is described as follows: cells. Conditions: Homo sapiens, NCI-H2009. The test is classed as functional, cell-based, Homo sapiens.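 Also: cell viability assay measuring inhibition of NCI-H2009 cell growth.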
Description: SANGER: Inhibition of human NCI-H2009 cell growth in a cell viability assay.
Test [20] relates to NCI-H2170. The test is described as follows: cells. The test is classed as functional, cell-based, Homo sapiens. Conditions: Homo sapiens, NCI-H2170.
Description: SANGER: Inhibition of human NCI-H2170 cell growth in a cell viability assay.
For test [21], the system named is P12-Ichikawa. Nature of the test: cells. Conditions: Homo sapiens, P12-Ichikawa. The class given is functional, cell-based, Homo sapiens.
The subject of test [22] is RH-18. The test is described as follows: cells. The class given is functional, cell-based, Homo sapiens. Conditions: Homo sapiens, Rh18.
Description: SANGER: Inhibition of human RH-18 cell growth in a cell viability assay.
In test [23] the test system is SW900. The test is described as follows: cells. The class given is functional, cell-based, Homo sapiens. Conditions: Homo sapiens, SW900.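 Also: IC50 is the concentration that inhibits SW900 cell growth, measured by a cell viability assay.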
Description: SANGER: Inhibition of human SW900 cell growth in a cell viability assay.
Test [24] deals with BALL-1. The test is described as follows: cells. Conditions: Homo sapiens, BALL-1. The class given is functional, cell-based, Homo sapiens.
Description: SANGER: Inhibition of human BALL-1 cell growth in a cell viability assay.
Test [25] concerns C3A. The test is described as follows: cells. Conditions: Homo sapiens, C3A. The test is classed as functional, cell-based, Homo sapiens.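 Also: growth inhibition of C3A human cells, quantified with a cell viability readout.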
Description: SANGER: Inhibition of human C3A cell growth in a cell viability assay.
The subject of test [26] is CAL-85-1. Nature of the test: cells. The test is classed as functional, cell-based, Homo sapiens. Conditions: Homo sapiens, CAL-85-1.
Description: SANGER: Inhibition of human CAL-85-1 cell growth in a cell viability assay.
In test [27] the test system is TI-73. Nature of the test: cells. The test is classed as functional, cell-based, Homo sapiens. Conditions: Homo sapiens, TI-73.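 Also: cell viability assay measuring how much compounds suppress growth of the cultured cell line.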
Description: SANGER: Inhibition of human TI-73 cell growth in a cell viability assay.
In test [28] the test system is TYK-nu. The test is described as follows: cells. The test is classed as functional, cell-based, Homo sapiens. Conditions: Homo sapiens, TYK-nu.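 Also: growth inhibition of human TYK-nu cells, read out by a cell viability assay.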
Description: SANGER: Inhibition of human TYK-nu cell growth in a cell viability assay.
The test system of test [29] is UMC-11. The test is described as follows: cells. The test is classed as functional, cell-based, Homo sapiens. Conditions: Homo sapiens, UMC-11.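 Also: growth inhibition of UMC-11 cells, read out with a cell viability assay.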
Description: SANGER: Inhibition of human UMC-11 cell growth in a cell viability assay.
For test [30], the system named is YAPC. Nature of the test: cells. The test is classed as functional, cell-based, Homo sapiens. Conditions: Homo sapiens, YAPC.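 Also: growth inhibition of YAPC cells, measured with a cell viability assay.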
Description: SANGER: Inhibition of human YAPC cell growth in a cell viability assay.
Test [31] concerns CP67-MEL. Nature of the test: SANGER: Inhibition of human CP67-MEL cell growth in a cell viability assay. The test is classed as functional, cell-based.
Test [32] relates to KP-N-RT-BM-1. Nature of the test: SANGER: Inhibition of human KP-N-RT-BM-1 cell growth in a cell viability assay. The class given is functional, cell-based.
In test [33] the test system is L-540. The test is described as follows: cells. The class given is functional, cell-based, Homo sapiens. Conditions: Homo sapiens, L-540.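 Also: growth inhibition of the human L-540 cell line, read out with a viability assay.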
Description: SANGER: Inhibition of human L-540 cell growth in a cell viability assay.
In test [34] the test system is LC-1F. Nature of the test: cells. The class given is functional, cell-based, Homo sapiens. Conditions: Homo sapiens, LC-1F.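 Also: growth inhibition of human LC-1F cells, read out with a cell viability assay.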
Description: SANGER: Inhibition of human LC-1F cell growth in a cell viability assay.
For test [35], the system named is NCI-H1436. Nature of the test: cells. The class given is functional, cell-based, Homo sapiens. Conditions: Homo sapiens, NCI-H1436.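 Also: growth suppression of human NCI-H1436 cells, determined with a cell viability readout.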
Description: SANGER: Inhibition of human NCI-H1436 cell growth in a cell viability assay.
Test [36] concerns SKM-1. The test is described as follows: SANGER: Inhibition of human SKM-1 cell growth in a cell viability assay. The class given is functional, cell-based.
In test [37] the test system is ST486. Nature of the test: SANGER: Inhibition of human ST486 cell growth in a cell viability assay. The test is classed as functional, cell-based. Conditions: Homo sapiens, ST486.
For test [38], the system named is CESS. Nature of the test: SANGER: Inhibition of human CESS cell growth in a cell viability assay. The class given is functional, cell-based. Conditions: Homo sapiens, CESS.

pIC50: −log10 of the molar value.

Turning to `CO[C@H]1C[C@@H]2CC[C@@H](C)[C@@](O)(O2)C(=O)C(=O)N2CCCC[C@H]2C(=O)O[C@H]([C@H](C)C[C@@H]2CC[C@@H](OC(=O)C(C)(CO)CO)[C@H](OC)C2)CC(=O)[C@H](C)/C=C(\C)[C@@H](O)[C@@H](OC)C(=O)[C@H](C)C[C@H](C)/C=C/C=C/C=C/1C` [TEMSIROLIMUS], the pIC50 (in general, −log10 of the IC50, conventionally taken in molar units) is below 6.70 in test [1]; below 6.70 in test [2]; below 6.70 in test [3]; below 6.70 in test [4]; below 6.70 in test [5]; 8.31 in [6]. For the same compound, the pIC50 in test [7] is below 6.70; in test [8], 8.02; in test [9] it was 7.41; in [10], 6.83; in test [11] it was 6.81; in test [12], below 6.70. For the same compound, the pIC50 in test [13] is 7.31; in test [14], 7.75; in test [15] it was 7.04; in test [16], below 6.70; in test [17], below 6.70; in test [18], below 6.70. Further, the pIC50 in test [19] was below 6.70; in [20], below 6.70; in test [21] it was 7.89; in [22], below 6.70; in test [23], below 6.70; in test [24], below 6.70. The pIC50 in test [25] was below 6.70; in test [26], below 6.70; in test [27], below 6.70; in [28], 9.11; in test [29], 7.05; in [30] it was below 6.70.
Consider `CCN(CC)CCNC(=O)c1c(C)[nH]c(/C=C2\C(=O)Nc3ccc(F)cc32)c1C` [SUNITINIB], for which the pIC50 in test [31], in [32], in test [33], in test [34], in test [14] and in [35] was below 5.10 throughout. For the same compound, the pIC50 in test [36] was below 5.10; in test [37] it was 5.20; in test [38], 5.15.
For `OCCCNc1cc(-c2ccnc(Nc3cccc(Cl)c3)n2)ccn1`, the pIC50 was 7.28 in [31]; 6.83 in test [32]; 6.71 in [33]; 6.93 in test [34]; below 6.59 in test [14]; 6.60 in test [35]. The pIC50 in test [36] was below 6.59; in [37], 7.51; in [38], 7.40.
As for `COc1cc2ncn(-c3cc(OCc4ccccc4C(F)(F)F)c(C(N)=O)s3)c2cc1OC` [GW843682X], the negative logarithm of the IC50 (pIC50) in test [31] was 6.93; in test [32], 6.88; in [33], 6.92; in test [34], below 6.59; in test [14], below 6.59; in test [35] it was below 6.59. Moreover, the pIC50 in test [36] was below 6.59; in test [37], 7.69; in test [38] it was 7.88.
